Patent US6153611A, “Piperazinyl-cyclohexanes and cyclohexenes” (Bristol-Myers Squibb Company, priority 1993, dated 2000)
Where two headings read alike, the source gives them in different places.

Assays:
[1] = biological target: T1, Dopamine D2 (Rattus norvegicus, UniProt P61169); assay: Dopamine D2 Binding Assay ([3H]Spiperone, corpus striatum membranes); set-up: species or system male Sprague-Dawley rats; conditions: [3H]Spiperone 0.1 nM, 37° C., 15 min
T1 construct: The corpus striatum was crudely dissected and frozen on dry ice; from tissue; host or cells: rat corpus striatum membranes (male Sprague-Dawley rats, Charles River)
Description: Activity at D2 sites is measured using the screening process set out in Example 67.
Dopamine D2 Binding Assay
Dopamine D2 affinity was determined according to the procedures of Burt, Creese and Snyder [Molecular Pharmacology 12,800 (1976); Science 196, 326 (1977); Science 192, 481 (1976)]. Briefly, male Sprague-Dawley rats (Charles River) were decapitated, brains rapidly removed and chilled in ice-cold 50 mM Hepes/KOH buffer (pH 7.4, 20° C.). The corpus striatum was crudely dissected and frozen on dry ice. Tissue was pooled and stored at -80° C. until use. On the day of assay, tissue was thawed in 20 ml ice-cold Hepes/KOH buffer, and homogenized with a polytron for 15 sec at 18,000 rpm. The homogenate was centrifuged (39,000×g, 10 min, at 4° C.). The supernatant was discarded and the pellet rehomogenized in ice-cold Hepes/KOH buffer and recentrifuged as described previously. The supernatant was again discarded and the pellet resuspended (1:100) in ice-cold Hepes/KOH buffer (pH 7.4, 20° C., containing 120 mM NaCl, 5 mM KCl, 1 mM MgCl2, 0.1% (w/v) ascorbic acid, and 10 μM pargylline, and stored on ice until assay. The binding assay (1 ml total volume) was performed in duplicate and initiated by the addition of 800 μl membrane homogenate to tubes containing 100 μl [^3 H]Spiperone (0.1 nM final concentration), and 100 μl competitor, buffer, or butaclamol, which was used to define the non-specific binding. The assay was incubated at 37° C. for 15 min, afterwhich the assay was terminated by rapid filtration.
In vitro IC50 test values for binding to the D2 receptor were determined for representative compounds of Formula I by the method of Burt, Creese, and Snyder, Molecular Pharmacology 12, 800 (1976); Creese, Burt, and Snyder, Science 196, 326 (1977); and Creese, Burt and Snyder, Science 192, 481 (1976). Test IC50 values greater than 1,000 nM are considered to reflect inactivity at the D2 receptor, indicating the risk of extrapyramidal side effects is small.

[2] = biological target: T2, sigma receptor (Cavia porcellus, UniProt Q60492); assay: Sigma binding (method of Tam and Cook)
T2 construct: from tissue
Description: In vitro IC50 test values for binding to the sigma receptor were determined for representative compounds of Formula I by the method of Tam and Cook [see: Tam, S. W., and Cook, L: Proc. Natl. Acad. Sci. USA 81, 5618-5621 (1984)] with only minor modifications. Test IC50 values lower than 100 nM are considered to reflect activity at the sigma receptor.

[3] = tested on: brain ischemia; assay: Anoxic Nitrogen Test in Rats; assay type: in vivo, male Sprague-Dawley rats; conditions: Rattus norvegicus, sc, subcutaneously, 2 hr survival, read-out: Nitrogen Anoxia % Survival
From the text: Most specifically, administration of the compounds of Formula I results in protection against hypoxia-induced death in an anoxic nitrogen test in rats (Example 66). The test identifies the neuro-protective effects of substances against lethal brain damages produced by a lack of oxygen consumption (anoxia). In this test procedure, control animals exposed for one minute to a pure nitrogen atmosphere will expire because of respiratory failure caused by irreversible damage to the brain respiratory center.
Anoxic Nitrogen Test in Rats
The animals utilized are male Sprague-Dawley rats (200-400 grams) housed four animals per cage in a normal controlled environment with unlimited access to food and water. Usually there are 8 animals per dose, however, […] can be employed to obtain an initial impression of a compound's activity. Animals are parenterally or orally administered the vehicle or test compound 30 minutes before the anoxic insult. The anoxic episode consists of placing up to 8 animals in the sealed test chamber (10" l×10" w×6" h) continuously flushed with pure N2 (4.5 grade) at a flow rate of 5 SCFM for 1 min. Animals are then promptly removed to normal atmosphere and observed for the 2 hour period. Typically, animals become disoriented within 15 sec after which they remain motionless.
Even though the heart is still beating after the N2 exposure, all control animals fail to gasp when removed from the chamber and usually expire within 3 minutes. Drug treated animals, however, still gasp or start gasping after being removed, which is a good indication that the animals will survive the N2 exposure [see Wauquire, A., et al: Arch. Int. Pharmacodyn., 249, 330-334 (1981); Wauquier, A., et al: Drug Dev. Res., 8, 373-380 (1986)]. Results are recorded as:
(Number of animals surviving (2 hr))/(Number of animals tested)×100%
The anoxic nitrogen test is an in vivo model of brain ischemia in rats [see: Wauquire, A., et al: Arch. Int. Pharmacodyn., 249, 330-334 (1981); Wauquier, A., et al: Drug Dev. Res., 8, 373-380 (1986)]. Compounds of the present invention are active in this in vivo model of brain ischemia when given subcutaneously in the doses indicated in Table 2, thus providing additional evidence that the present compounds will be useful in the treatment of brain ischemia.

T2 sequence (Q60492 whole entry): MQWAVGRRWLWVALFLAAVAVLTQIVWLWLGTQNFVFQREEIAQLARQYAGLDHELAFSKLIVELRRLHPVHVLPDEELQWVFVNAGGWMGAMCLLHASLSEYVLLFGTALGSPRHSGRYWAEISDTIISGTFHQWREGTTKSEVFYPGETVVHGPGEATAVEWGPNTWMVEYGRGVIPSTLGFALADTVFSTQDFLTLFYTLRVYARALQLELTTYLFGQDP
T1 sequence (P61169 whole entry): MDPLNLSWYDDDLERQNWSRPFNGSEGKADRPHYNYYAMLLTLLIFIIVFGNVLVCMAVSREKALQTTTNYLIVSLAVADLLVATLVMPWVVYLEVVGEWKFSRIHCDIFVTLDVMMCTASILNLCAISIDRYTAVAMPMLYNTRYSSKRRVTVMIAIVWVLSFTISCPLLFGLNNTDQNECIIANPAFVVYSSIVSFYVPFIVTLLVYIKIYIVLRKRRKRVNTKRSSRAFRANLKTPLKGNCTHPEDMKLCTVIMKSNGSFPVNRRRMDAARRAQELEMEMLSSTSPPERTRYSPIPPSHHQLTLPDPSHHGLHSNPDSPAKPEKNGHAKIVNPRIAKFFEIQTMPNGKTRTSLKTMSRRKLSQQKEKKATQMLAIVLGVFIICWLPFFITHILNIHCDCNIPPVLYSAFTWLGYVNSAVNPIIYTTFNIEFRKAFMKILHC

| SMILES | IC50 [1] [nM] | IC50 [2] [nM] | responders at 10 mg/kg ([3]; 10 mg/kg) [%] | other results |
| --- | --- | --- | --- | --- |
| Fc1ccc(CN2CCN(C3CC=C(c4ccc(F)cc4)CC3)CC2)cc1 (stereo not drawn) [Example 41, 1-[4-(4-Fluorophenyl)-3-cyclohexen-1-yl]-4-[(4-fluorophenyl)methyl]piperazine] | 1000 to 10000 | 0.6 |  | responders at 20 mg/kg ([3]; 20 mg/kg): 92% |
| COc1cccc(CN2CCN(C3CC=C(c4ccc5c(c4)OCO5)CC3)CC2)c1 (stereo not drawn) [Example 59, 1-[4-(1,3-Benzodioxol-5-yl)-3-cyclohexen-1-yl]-4-[(3-methoxyphenyl)methyl]piperazine] | 1000 to 10000 |  | 75 |  |
| Fc1ccc2[nH]cc(C3=CCC(N4CCN(Cc5ccccc5)CC4)CC3)c2c1 (stereo not drawn) [Example 49, 5-Fluoro-3-{4-[4-(phenylmethyl)-1-piperazinyl]-1-cyclohexen-1-yl]-1H-indole] | 1000 to 10000 | 8.6 |  | responders at 10 mg/kg ([3]; 10 & 60 mg/kg): 92% |
| C1=C(Cc2ccccc2)CCC(N2CCN(Cc3ccccc3)CC2)C1 (stereo not drawn) [Example 43, 1-(Phenylmethyl)-4-[4-(phenylmethyl)-3-cyclohexen-1-yl]piperazine] | 1000 to 10000 | 2.1 |  | responders at 5 mg/kg ([3]; 5 mg/kg): 75% |
| Fc1ccc([C@H]2CC[C@H](N3CCN(Cc4ccccc4)CC3)CC2)cc1 [Example 63, Trans 1-[4-(4-fluorophenyl)-1-cyclohexyl]-4-(phenylmethyl)piperazine] | 1000 to 10000 | 0.7 |  | responders at 20 mg/kg ([3]; 20 & 40 mg/kg): 75% |
| COc1cccc(CC2CCN(C3CC=C(c4ccc5c(c4)OCO5)CC3)CC2)c1 (stereo not drawn) [Example 52, 1-[4-(1,3-Benzodioxol-5-yl)-3-cyclohexen-1-yl]-4-[(3-methoxyphenyl)methyl]piperidine] | 1000 to 10000 | 7.4 | 38 |  |
| Fc1ccc([C@H]2CC[C@@H](N3CCN(Cc4ccccc4)CC3)CC2)c2ccccc12 [Example 62-cis, Cis and trans 1-[4-(4-fluoro-1-naphthalenyl)-1-cyclohexyl]-4-(phenylmethyl)piperazine] | > 100000 | 6.9 |  | responders at 40 mg/kg [3]: 63% |
| C1=C(c2ccc3c(c2)OCO3)CCC(N2CCN(Cc3ccccc3)CC2)C1 (stereo not drawn) [Example 37, 1-[4-(1,3-Benzodioxol-5-yl)-3-cyclohexen-1-yl]-4-(phenylmnethyl) piperazine] | 10000 to 50000 | 1.9 |  | responders at 40 mg/kg [3]: 92% |
| Fc1ccc(C2=CCC(N3CCN(Cc4ccccc4)CC3)CC2)c2ccccc12 (stereo not drawn) [Example 36, 1-[4-(4-Fluoro-1-naphthalenyl)-3-cyclohexen-1-yl]-4-(phenylmethyl)piperazin] | 1000 to 10000 |  |  | responders at 50 mg/kg ([3]; 50 mg/kg): 100% |
| Fc1ccccc1CC1CCN(C2CC=C(c3ccc4c(c3)OCO4)CC2)CC1 (stereo not drawn) [Example 53, 1-[4-(1,3-Benzodioxol-5-yl)-3-cyclohexen-1-yl]-4-[(2-fluorophenyl)methyl]piperidine] | 1000 to 10000 |  |  |  |
| C1=C(c2nc3ccccc3s2)CCC(N2CCN(Cc3ccccc3)CC2)C1 (stereo not drawn) [Example 38, 1-[4-(2-Benzothiazolyl)-3-cyclohexen-1-yl]-4-(phenylmethyl)piperazine] | 10000 to 50000 | 3.9 |  | responders at 80 mg/kg ([3]; 80 mg/kg): 100% |
| COc1cccc(CN2CCN([C@H]3CC[C@H](c4ccc(F)cc4)CC3)CC2)c1 [Example 65, Trans 1-[4-(4-fluorophenyl)-1-cyclohexyl]-4-[(3-methoxyphenyl)methyl]piperazine] | 1000 to 10000 | 3.2 | 62 |  |
| FC(F)(F)c1ccc(C2=CCC(N3CCN(Cc4ccccc4)CC3)CC2)cc1 (stereo not drawn) [Example 40, 1-(Phenylmethyl)-4-[4-[4-(trifluoromethyl)phenyl]-3-cyclohexen-1-yl]piperazine] | 10000 to 50000 | 4.5 | 100 |  |
| COc1ccc(C2=CCC(N3CCN(Cc4ccccc4)CC3)CC2)cc1 (stereo not drawn) [Example 39, 1-[4-(4-Methoxyphenyl)-3-cyclohexen-1-yl]-4-(phenylmethyl)piperazine] | 1000 to 10000 | 0.9 |  | responders at 20 mg/kg ([3]; 20 & 30 mg/kg): 92% |
| Fc1ccc(C2=CCC(N3CCN(Cc4cccs4)CC3)CC2)cc1 (stereo not drawn) [Example 44, 1-[4-(4-Fluorophenyl)-3-cyclohexen-1-yl]-4-(2-thienylmethyl)piperazine] | 1000 to 10000 |  |  | responders at 40 mg/kg [3]: 100% |
| Fc1ccc(F)c(CC2CCN(C3CC=C(c4ccc(F)c(F)c4)CC3)CC2)c1 (stereo not drawn) [Example 55, 1-[4-(3,4-Difluorophenyl)-3-cyclohexen-1-yl]-4-[(2,5-difluorophenyl)methyl]piperidine] | 1000 to 10000 |  |  |  |
| Fc1ccc([C@H]2CC[C@H](N3CCN(Cc4ccc5ccccc5n4)CC3)CC2)cc1 [Example 64, Trans 2-{{4-[4-(4-fluorophenyl)-1-cyclohexyl]-1-piperazinyl}methyl]quinoline] | 1000 to 10000 |  |  | responders at 5 mg/kg ([3]; 5 & 20 mg/kg): 83% |
| Fc1ccc(C2=CCC(N3CCN(Cc4ccc5ccccc5n4)CC3)CC2)cc1 (stereo not drawn) [Example 45, 2{{4-[4-(4-Fluorophenyl)-3-cyclohexen-1-yl]-1-piperazinyl]methyl]quinoline] | 1000 to 10000 |  |  | responders at 20 mg/kg ([3]; 20 mg/kg): 83% |
| C1=C(c2ccc3c(c2)OCCO3)CCC(N2CCN(Cc3ccccc3)CC2)C1 (stereo not drawn) [Example 56, 1-[4-(1,4-Benzodioxan-6-yl)-3-cyclohexen-1-yl]-4-(phenylmethyl)piperazine] |  |  | 100 |  |
| Clc1ccccc1CN1CCN(C2CC=C(c3ccc4c(c3)OCO4)CC2)CC1 (stereo not drawn) [Example 57, 1-[4-(1,3-Benzodioxol-5-yl)-3-cyclohexen-1-yl]-4-[(2-chlorophenyl)methyl]piperazine] | 1000 to 10000 |  | 25 |  |
| Ic1ccc(I)c(CN2CCN(C3CC=C(c4ccc5c(c4)OCO5)CC3)CC2)c1 (stereo not drawn) [Example 61, 1-[4-(1,3-Benzodioxol-5-yl)-3-cyclohexen-1-yl]-4-[(2,5-diiodophenyl)methyl]piperazine] | > 100000 |  |  |  |
| Fc1ccc(F)c(CN2CCN(C3CC=C(c4ccc5c(c4)OCO5)CC3)CC2)c1 (stereo not drawn) [Example 58, 1-[4-(1,3-Benzodioxol-5-yl)-3-cyclohexen-1-yl]-4-[(2,5-difluorophenyl)methyl]piperazine] | 1000 to 10000 |  | 62 |  |
